Reference: patent US10227342B2 (ARIAD PHARMACEUTICALS, INC., priority 2014, dated 2019)

Key:
Format in all cases: cell-based
[1] = target: human EGFR exon 20 insertion NPG (H773_V774insNPG) (Homo sapiens, UniProt P00533, INS773NPG, cells depend on it); test: Ba/F3-EGFR-Exon20-NPG cell anti-proliferative assay (CellTiter 96 MTS, 72 h); details: read-out: EGFR exon 20 NPG insertion IC50
[2] = target: Her2 exon 20 YVMA insertion (A775_G776ins YVMA) (Homo sapiens (Human), UniProt P04626, INS775YVMA); test: Ba/F3-Her2 Exon20 YVMA cell anti-proliferative assay (CellTiter 96 MTS, 72 h); details: Ba/F3-Her2 Exon20 YVMA cells
Text: Ba/F3 cells expressing Her2 Exon20 YVMA insertions (named Ba/F3-Her2 Exon20 YVMA) can proliferate in the absence of IL-3.

[3] = target: human EGFR L858R and T790M double mutation (LT) (Homo sapiens (Human), UniProt P00533, L858R/T790M); test: Ba/F3-EGFR L858R/T790M cell anti-proliferative assay (CellTiter 96 MTS, 72 h); details: Ba/F3-EGFR L858R/T790M cells; for IC50: read-out: EGFR exon 21 L858R and T790M mutation IC50;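 on all read-outs here: Ba/F3 cells carrying the EGFR L858R/T790M double mutant are able to grow without IL-3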
Experimental: An expression vector, pLVX-IRES puro (Clontech) coding for human EGFR L858R and T790M double mutation, was transfected into HEK293 cells by the Trans-Lentiviral ORF Packaging System (Thermo Scientific), to produce virus encoding EGFR L858R and T790M double mutations. […] Ba/F3 cells expressing EGFR L858R and T790M double mutation (named Ba/F3-EGFR L858R/T790M) can proliferate in the absence of IL-3. The anti-proliferative activity of compounds was determined as follows: BaF3-EGFR L858R/T790M cells seeded in 96 well plates (2500 cells/well) were treated with test compound (dissolved in DMSO) at a series of concentrations (4-fold dilution, top concentration: 10,000 nM). The plates were incubated for 72 h in a 37° C. incubator with 5% CO2, and the number of viable cells in each well were measured indirectly by CellTiter 96® Aqueous One Solution Cell Proliferation Assay (Promega; this assay is a colorimetric method for determining the number of viable cells through measurement of their metabolic activity by detection of enzymatic conversion of tetrazolium salts into blue formazan derivatives). Reagent (20 μL) was added into each well, and the plates were returned to the incubator for 2 h. The absorbance in each well was then measured at 490 nm using an Envision plate reader (Perkin Elmer).

[4] = target: human EGFR exon 20 insertion ASV (V769_D770insASV) (Homo sapiens (Human), UniProt P00533, INS769ASV); test: Ba/F3-EGFR-Exon20-ASV cell anti-proliferative assay (CellTiter 96 MTS, 72 h); details: Ba/F3-EGFR-Exon20-ASV cells;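 further: Ba/F3 cells bearing the EGFR exon 20 ASV insertion, a line able to proliferate without IL-3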
Experimental: Ba/F3 cells expressing EGFR exon 20 insertions (named Ba/F3-EGFR-Exon20-NPG or Ba/F3-EGFR-Exon20-ASV) can proliferate in the absence of IL-3. The anti-proliferative activity of compounds were determined as follows: BaF3-EGFR-Exon20 cells (NPG or ASV) seeded in 96 well plates (2500 cells/well) were treated with test compound (dissolved in DMSO) at a series of concentrations (4-fold dilution, top concentration: 10,000 nM). The plates were incubated for 72 h in a 37° C. incubator with 5% CO2, and the number of viable cells in each well were measured indirectly by CellTiter 96® Aqueous One Solution Cell Proliferation Assay (Promega) This assay is a colorimetric method for determining the number of viable cells through measurement of their metabolic activity by detection of enzymatic conversion of tetrazolium salts into blue formazan derivatives. Reagent (20 μL) was added into each well, and the plates were returned to the incubator for 2 h. The absorbance in each well was then measured at 490 nm using an Envision plate reader (Perkin Elmer).

[5] = target: human EGFR E746-A750 deletion and T790M Mutation (DT) (Homo sapiens (Human), UniProt P00533, DEL746-750/T790M); test: Ba/F3-EGFR-Del/T790M cell anti-proliferative assay (CellTiter 96 MTS, 72 h); details: Ba/F3-EGFR-Del/T790M cells; read-out: EGFR exon 19 deletion and T790M mutation IC50
Chain of human EGFR E746-A750 deletion and T790M Mutation (DT) (P00533 other isoform, or with tags, fused parts or gaps T790M/del E746-A750): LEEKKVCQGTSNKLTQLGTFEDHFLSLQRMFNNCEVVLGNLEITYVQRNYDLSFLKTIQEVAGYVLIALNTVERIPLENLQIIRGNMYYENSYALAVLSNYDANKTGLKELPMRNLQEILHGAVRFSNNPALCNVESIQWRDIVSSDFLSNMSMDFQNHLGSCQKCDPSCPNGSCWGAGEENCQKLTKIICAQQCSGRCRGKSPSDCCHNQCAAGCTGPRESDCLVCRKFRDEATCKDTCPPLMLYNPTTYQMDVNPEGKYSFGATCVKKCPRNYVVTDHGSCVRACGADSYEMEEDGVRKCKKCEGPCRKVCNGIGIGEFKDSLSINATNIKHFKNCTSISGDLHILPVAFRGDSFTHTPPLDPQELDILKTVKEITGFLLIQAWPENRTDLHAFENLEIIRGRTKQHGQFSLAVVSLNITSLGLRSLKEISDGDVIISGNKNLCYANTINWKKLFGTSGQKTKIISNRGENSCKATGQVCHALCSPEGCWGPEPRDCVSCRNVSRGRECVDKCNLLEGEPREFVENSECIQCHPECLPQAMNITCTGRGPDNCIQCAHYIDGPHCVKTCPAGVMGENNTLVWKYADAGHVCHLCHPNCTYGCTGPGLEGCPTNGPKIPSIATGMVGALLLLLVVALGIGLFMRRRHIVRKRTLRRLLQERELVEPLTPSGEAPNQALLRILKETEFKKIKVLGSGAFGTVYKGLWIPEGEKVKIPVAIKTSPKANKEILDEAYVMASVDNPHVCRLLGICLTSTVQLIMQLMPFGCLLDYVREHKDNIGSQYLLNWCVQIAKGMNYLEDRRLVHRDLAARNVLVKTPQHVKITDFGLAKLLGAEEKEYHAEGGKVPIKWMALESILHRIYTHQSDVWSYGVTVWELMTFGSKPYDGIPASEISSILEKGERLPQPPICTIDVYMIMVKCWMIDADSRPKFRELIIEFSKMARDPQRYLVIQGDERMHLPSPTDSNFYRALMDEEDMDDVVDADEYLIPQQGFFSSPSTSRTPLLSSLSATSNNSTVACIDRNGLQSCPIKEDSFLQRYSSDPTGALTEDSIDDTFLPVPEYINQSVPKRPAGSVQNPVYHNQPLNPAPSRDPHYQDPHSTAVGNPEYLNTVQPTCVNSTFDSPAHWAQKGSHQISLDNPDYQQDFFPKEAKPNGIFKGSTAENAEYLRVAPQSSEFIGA

Chain of human EGFR exon 20 insertion ASV (V769_D770insASV) (P00533 other isoform, or with tags, fused parts or gaps ins ASV behind 769): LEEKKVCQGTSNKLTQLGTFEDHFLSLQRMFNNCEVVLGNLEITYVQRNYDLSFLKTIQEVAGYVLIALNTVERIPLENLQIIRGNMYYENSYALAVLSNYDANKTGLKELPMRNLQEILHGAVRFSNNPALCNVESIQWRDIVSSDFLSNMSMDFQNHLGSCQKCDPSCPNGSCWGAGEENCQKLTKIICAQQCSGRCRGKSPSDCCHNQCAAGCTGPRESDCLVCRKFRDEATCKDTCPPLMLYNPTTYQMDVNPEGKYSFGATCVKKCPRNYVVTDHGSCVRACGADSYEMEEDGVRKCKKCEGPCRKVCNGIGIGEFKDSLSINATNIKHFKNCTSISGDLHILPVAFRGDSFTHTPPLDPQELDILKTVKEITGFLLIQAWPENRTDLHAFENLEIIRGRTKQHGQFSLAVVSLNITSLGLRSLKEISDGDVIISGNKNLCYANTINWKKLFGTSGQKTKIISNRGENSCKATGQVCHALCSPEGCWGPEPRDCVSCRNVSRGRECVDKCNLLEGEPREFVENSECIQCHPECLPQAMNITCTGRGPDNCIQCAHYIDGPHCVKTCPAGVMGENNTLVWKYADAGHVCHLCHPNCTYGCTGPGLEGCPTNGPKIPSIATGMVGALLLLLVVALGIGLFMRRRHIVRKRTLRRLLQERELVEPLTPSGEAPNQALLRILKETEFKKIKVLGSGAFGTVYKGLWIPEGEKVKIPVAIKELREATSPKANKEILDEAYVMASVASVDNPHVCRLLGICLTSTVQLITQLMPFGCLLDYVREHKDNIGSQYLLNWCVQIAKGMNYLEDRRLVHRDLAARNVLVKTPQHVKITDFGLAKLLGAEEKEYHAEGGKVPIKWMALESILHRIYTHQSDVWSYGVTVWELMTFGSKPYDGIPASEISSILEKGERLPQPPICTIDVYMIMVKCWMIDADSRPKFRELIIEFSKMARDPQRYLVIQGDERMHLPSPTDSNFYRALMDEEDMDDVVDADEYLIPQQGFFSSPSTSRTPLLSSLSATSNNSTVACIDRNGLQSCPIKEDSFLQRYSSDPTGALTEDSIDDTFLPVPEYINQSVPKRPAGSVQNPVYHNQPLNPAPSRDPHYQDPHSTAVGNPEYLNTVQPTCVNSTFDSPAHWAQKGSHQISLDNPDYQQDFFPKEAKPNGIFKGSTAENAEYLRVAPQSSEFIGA
Chain of Her2 exon 20 YVMA insertion (A775_G776ins YVMA) (P04626 other isoform, or with tags, fused parts or gaps ins YVMA behind 775): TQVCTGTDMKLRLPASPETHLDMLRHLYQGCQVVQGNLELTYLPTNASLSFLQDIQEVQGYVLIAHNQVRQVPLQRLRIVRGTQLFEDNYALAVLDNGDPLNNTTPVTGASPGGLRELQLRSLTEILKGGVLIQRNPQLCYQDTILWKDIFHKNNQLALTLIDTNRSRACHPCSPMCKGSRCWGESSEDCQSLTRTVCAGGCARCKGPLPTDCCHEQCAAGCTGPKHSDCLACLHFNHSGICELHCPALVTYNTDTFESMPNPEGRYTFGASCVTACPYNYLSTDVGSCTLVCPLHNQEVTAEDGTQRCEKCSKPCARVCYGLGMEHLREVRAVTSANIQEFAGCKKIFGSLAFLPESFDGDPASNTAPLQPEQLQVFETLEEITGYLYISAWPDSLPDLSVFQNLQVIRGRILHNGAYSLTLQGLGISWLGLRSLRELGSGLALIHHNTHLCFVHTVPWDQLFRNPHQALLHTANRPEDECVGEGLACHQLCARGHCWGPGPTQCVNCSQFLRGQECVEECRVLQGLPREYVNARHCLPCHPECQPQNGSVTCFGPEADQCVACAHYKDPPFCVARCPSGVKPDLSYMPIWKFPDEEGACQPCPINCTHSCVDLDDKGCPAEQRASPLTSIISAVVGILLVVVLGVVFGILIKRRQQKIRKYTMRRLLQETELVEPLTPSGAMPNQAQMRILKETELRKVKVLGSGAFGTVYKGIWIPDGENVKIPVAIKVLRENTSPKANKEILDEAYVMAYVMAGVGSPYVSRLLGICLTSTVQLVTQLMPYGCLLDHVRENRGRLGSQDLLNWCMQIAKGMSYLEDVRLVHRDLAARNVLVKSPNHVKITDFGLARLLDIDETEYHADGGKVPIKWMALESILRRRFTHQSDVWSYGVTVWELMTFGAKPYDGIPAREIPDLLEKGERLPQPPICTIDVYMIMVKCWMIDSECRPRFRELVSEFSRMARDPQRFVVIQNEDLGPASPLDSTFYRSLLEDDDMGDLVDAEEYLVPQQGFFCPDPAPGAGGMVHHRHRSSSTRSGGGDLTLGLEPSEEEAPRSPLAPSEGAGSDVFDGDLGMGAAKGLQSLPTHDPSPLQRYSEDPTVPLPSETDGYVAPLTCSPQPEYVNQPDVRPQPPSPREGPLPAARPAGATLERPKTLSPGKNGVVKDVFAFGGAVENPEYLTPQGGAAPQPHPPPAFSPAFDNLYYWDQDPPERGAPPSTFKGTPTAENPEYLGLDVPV
Chain of human EGFR exon 20 insertion NPG (H773_V774insNPG) (P00533 with tags, fused parts or gaps INS773NPG limits assumed): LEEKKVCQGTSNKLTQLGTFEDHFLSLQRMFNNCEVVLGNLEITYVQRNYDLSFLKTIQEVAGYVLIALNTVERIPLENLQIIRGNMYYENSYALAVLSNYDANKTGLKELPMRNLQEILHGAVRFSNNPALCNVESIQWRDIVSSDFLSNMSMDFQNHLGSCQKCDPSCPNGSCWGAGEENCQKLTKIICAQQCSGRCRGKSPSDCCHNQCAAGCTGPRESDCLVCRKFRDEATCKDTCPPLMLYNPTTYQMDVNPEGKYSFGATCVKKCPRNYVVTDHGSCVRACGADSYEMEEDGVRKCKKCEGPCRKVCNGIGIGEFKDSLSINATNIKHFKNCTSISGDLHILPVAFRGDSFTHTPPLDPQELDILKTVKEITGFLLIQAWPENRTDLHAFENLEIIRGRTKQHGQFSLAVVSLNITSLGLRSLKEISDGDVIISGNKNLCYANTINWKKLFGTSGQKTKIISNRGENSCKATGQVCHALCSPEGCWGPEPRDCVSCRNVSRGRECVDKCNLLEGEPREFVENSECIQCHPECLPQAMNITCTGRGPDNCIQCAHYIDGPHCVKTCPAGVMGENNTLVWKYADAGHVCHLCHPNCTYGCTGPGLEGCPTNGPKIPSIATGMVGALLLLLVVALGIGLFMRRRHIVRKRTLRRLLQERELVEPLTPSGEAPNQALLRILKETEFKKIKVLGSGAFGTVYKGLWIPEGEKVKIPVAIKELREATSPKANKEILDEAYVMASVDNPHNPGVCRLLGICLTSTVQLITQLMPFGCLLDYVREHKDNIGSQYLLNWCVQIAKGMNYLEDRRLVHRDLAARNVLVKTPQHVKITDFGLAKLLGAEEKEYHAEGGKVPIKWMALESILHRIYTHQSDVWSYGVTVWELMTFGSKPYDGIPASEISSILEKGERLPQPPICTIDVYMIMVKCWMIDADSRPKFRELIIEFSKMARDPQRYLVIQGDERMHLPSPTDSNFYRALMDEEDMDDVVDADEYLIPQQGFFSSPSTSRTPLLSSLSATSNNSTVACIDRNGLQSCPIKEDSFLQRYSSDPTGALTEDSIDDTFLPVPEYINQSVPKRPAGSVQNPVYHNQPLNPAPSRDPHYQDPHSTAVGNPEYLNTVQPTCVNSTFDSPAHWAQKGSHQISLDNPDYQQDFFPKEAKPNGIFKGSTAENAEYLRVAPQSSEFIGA

Work on `C=CC(=O)Nc1cc(Nc2ncc(C(=O)OC(C)C)c(-c3cn(CC)c4ccccc34)n2)c(OC)cc1N(C)CCN(C)C` [Example 77, isopropyl 2-((5-acrylamido-4-((2-(dimethylamino)ethyl)(methyl)amino)-2-methoxyphenyl)amino)-4-(1-ethyl-1H-indol-3-yl)pyrimidine-5-carboxylate] yielded an IC50 [1] of under 100 nM, an IC50 [2] of under 100 nM and an IC50 [3] of under 100 nM. For the same compound, the IC50 [4] was under 100 nM and the IC50 [5] was under 100 nM.

`C=CC(=O)Nc1cc(Nc2ncc(C(=O)OC(C)C)c(-c3cn(C)c4ccccc34)n2)c(OC)cc1N(C)C[C@@H]1CCCN1` [Example 73] showed an IC50 [1] of under 100 nM, an IC50 [2] of under 100 nM and an IC50 [3] of under 100 nM. For the same compound, the IC50 [4] was under 100 nM and the IC50 [5] was under 100 nM.

With `C=CC(=O)Nc1cc(Nc2ncc(C(=O)OC(C)C)c(-c3cn(C)c4ncccc34)n2)c(OC)cc1N(C)CCNC` [Example 74, isopropyl 2-((5-acrylamido-2-methoxy-4-(methyl(2-(methylamino)ethyl)amino)phenyl)amino)-4-(1-methyl-1H-pyrrolo[2,3-b]pyridin-3-yl)pyrimidine-5-carboxylate] the IC50 [1] was under 100 nM, the IC50 [2] was 100 to 500 nM and the “EGFR exon 21 L858R and T790M mutation IC50” value [3] was “B (Group B compounds have an IC50 value for the indicated mutant between about 100 to about 500 nM)”. For the same compound, the IC50 [4] was under 100 nM and the IC50 [5] was under 100 nM.

With `C=CC(=O)Nc1cc(Nc2ncc(C(=O)OC(C)C)c(-c3cn(C)c4ccccc34)n2)c(OC)cc1OCCN(C)C` [Example 67, isopropyl 2-((5-acrylamido-4-(2-(dimethylamino)ethoxy)-2-methoxyphenyl)amino)-4-(1-methyl-1H-indol-3-yl)pyrimidine-5-carboxylate] the IC50 [1] was under 100 nM, the IC50 [2] was under 100 nM and the IC50 [3] was under 100 nM. It also gave an IC50 [4] of under 100 nM and an IC50 [5] of under 100 nM.

Compound `C=CC(=O)Nc1cc(Nc2ncc(C(=O)OC(C)C)c(-c3cn(C)c4ccccc34)n2)c(OC)cc1N(C)CC1CCCN1C` (centres unmarked) [Example 17, isopropyl 2-((5-acrylamido-2-methoxy-4-(methyl((1-methylpyrrolidin-2-yl)methyl)amino)phenyl)amino)-4-(1-methyl-1H-indol-3-yl)pyrimidine-5-carboxylate] has an IC50 [1] of under 100 nM, an IC50 [2] of under 100 nM and an IC50 [3] of under 100 nM. It also gave an IC50 [4] of under 100 nM and an IC50 [5] of under 100 nM.

In the case of `C=CC(=O)Nc1cc(Nc2ncc(C(=O)OC(C)C)c(-c3c[nH]c4ncccc34)n2)c(OC)cc1N(C)CCN(C)C` [Example 66, isopropyl 2-((5-acrylamido-4-((2-(dimethylamino)ethyl)(methyl)amino)-2-methoxyphenyl)amino)-4-(1H-pyrrolo[2,3-b]pyridin-3-yl)pyrimidine-5-carboxylate], the IC50 [1] is reported as under 100 nM, the IC50 [2] is reported as under 100 nM and the IC50 [3] is reported as under 100 nM. It also gave an IC50 [4] of under 100 nM and an IC50 [5] of under 100 nM.

For `C=CC(=O)Nc1cc(Nc2ncc(C(=O)OC(C)C)c(-c3cn(C)c4ncccc34)n2)c(OC)cc1N(C)CCN(C)C` [Example 34, isopropyl 2-((5-acrylamido-4-((2-(dimethylamino)ethyl)(methyl)amino)-2-methoxyphenyl)amino)-4-(1-methyl-1H-pyrrolo[2,3-b]pyridin-3-yl)pyrimidine-5-carboxylate], the IC50 [1] was under 100 nM, the IC50 [2] was under 100 nM and the IC50 [3] was under 100 nM. For the same compound, the IC50 [4] was under 100 nM and the IC50 [5] was under 100 nM.
